Each molecule was assayed against T1, hCRTH2 (Homo sapiens, UniProt Q9Y5Y4). Details: Radioligand Binding Assay B; 0.7 nM [3H]PGD2, HEK-hCRTH2 membranes.
T1 sequence (Q9Y5Y4 1-395): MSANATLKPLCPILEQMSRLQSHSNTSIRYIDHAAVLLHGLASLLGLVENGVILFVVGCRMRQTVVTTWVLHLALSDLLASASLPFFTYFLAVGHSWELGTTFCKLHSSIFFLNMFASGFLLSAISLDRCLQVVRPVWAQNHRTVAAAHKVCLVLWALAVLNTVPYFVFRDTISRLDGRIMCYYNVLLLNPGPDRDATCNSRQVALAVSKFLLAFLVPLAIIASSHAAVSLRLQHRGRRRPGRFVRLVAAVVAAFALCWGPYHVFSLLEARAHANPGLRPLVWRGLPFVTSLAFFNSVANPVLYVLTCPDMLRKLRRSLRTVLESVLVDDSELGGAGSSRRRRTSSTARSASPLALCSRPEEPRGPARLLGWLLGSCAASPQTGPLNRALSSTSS
Design: expressed in transfected cells; host or cells: HEK (human embryonic kidney) cells expressing hCRTH2
Description: The filters were then washed with 4 mL of the same buffer and residual radioligand bound to the filter was determined by liquid scintillation counting following equilibration in 25 μl Ultima Gold F™ (Unifilter) (Packard).

SMILES | Ki
O=C(O)CCC(=O)N(C1CC1)C1c2ccccc2N(C(=O)Oc2ccccc2)C2CCCC21 (racemic) [21K, 4-{cyclopropyl[cis, cis-4-(phenoxycarbonyl)-2,3,3a,4,9,9a-hexahydro-1H-cyclopenta[b]quinolin-9-yl]amino}-4-oxobutanoic acid] | 905 nM
CC(CC(=O)N(C1CC1)C1c2ccccc2N(C(=O)OCc2ccccc2)C2CCCC21)C(=O)O (racemic) [compound 10, 4-[{cis,cis-4-[(Benzyloxy)carbonyl]-2,3,3a,4,9,9a-hexahydro-1H-cyclopenta[b]quinolin-9-yl}(cyclopropyl)amino]-2-methyl-4-oxobutanoic acid] | 514 nM
O=C(O)CCC(=O)N(C1CC1)[C@@H]1c2ccc(F)cc2N(C(=O)OCc2ccccc2)[C@@H]2CCC[C@@H]21 (racemic) [compound 16, 4-[{cis,cis-4-[(Benzyloxy)carbonyl]-6-fluoro-2,3,3a,4,9,9a-hexahydro-1H-cyclopenta[b]quinolin-9-yl}(cyclopropyl)amino]-4-oxobutanoic acid] | 2.7 nM

Same assay, conditions: Radioligand Binding Assay B; Table B, rated A-D

SMILES | Ki
CC(OC(=O)N1c2ccccc2C(N(C(=O)CCC(=O)O)C2CC2)C2CCCC21)c1ccccc1 (racemic) [21F, 4-(cyclopropyl{cis, cis-4-[(1-phenylethoxy)carbonyl]-2,3,3a,4,9,9a-hexahydro-1H-cyclopenta[b]quinolin-9-yl}amino)-4-oxobutanoic acid] | 20.1 to 200 nM
O=C(O)CCC(=O)N(C1CC1)C1c2ccccc2N(C(=O)OCc2ccccn2)C2CCCC21 (racemic) [21G, 4-(cyclopropyl{cis, cis-4-[(pyridin-2-ylmethoxy)carbonyl]-2,3,3a,4,9,9a-hexahydro-1H-cyclopenta[b]quinolin-9-yl}amino)-4-oxobutanoic acid] | 20.1 to 200 nM
CC(C)(C)COC(=O)N1c2ccccc2C(N(C(=O)CCC(=O)O)C2CC2)C2CCCC21 (racemic) [21H, 4-(cyclopropyl{cis, cis-4-[(2,2-dimethylpropoxy)carbonyl]-2,3,3a,4,9,9a-hexahydro-1H-cyclopenta[b]quinolin-9-yl}amino)-4-oxobutanoic acid] | 201 to 7500 nM
O=C(O)CCC(=O)N(C1CC1)C1c2ccccc2N(C(=O)OCc2ccncc2)C2CCCC21 (racemic) [21J, 4-(cyclopropyl{cis, cis-4-[(pyridin-4-ylmethoxy)carbonyl]-2,3,3a,4,9,9a-hexahydro-1H-cyclopenta[b]quinolin-9-yl}amino)-4-oxobutanoic acid] | 201 to 7500 nM
O=C(O)CCC(=O)N(C1CC1)C1c2ccccc2N(C(=O)Oc2ccccc2)C2CCCC21 (racemic) [21K, 4-{cyclopropyl[cis, cis-4-(phenoxycarbonyl)-2,3,3a,4,9,9a-hexahydro-1H-cyclopenta[b]quinolin-9-yl]amino}-4-oxobutanoic acid] | 201 to 7500 nM
O=C(O)CCC(=O)N(C1CC1)C1c2ccccc2N(C(=O)OCc2ccc(Cl)c(Cl)c2)C2CCCC21 (racemic) [21L, 4-{cyclopropyl[cis, cis-4-{[(3,4-dichlorobenzyl)oxy]carbonyl}-2,3,3a,4,9,9a-hexahydro-1H-cyclopenta[b]quinolin-9-yl]amino}-4-oxobutanoic acid] | 20.1 to 200 nM
O=C(O)CCC(=O)N(C1CC1)C1c2ccccc2N(C(=O)OCC2CC2)C2CCCC21 (racemic) [21i, 4-(cyclopropyl{cis, cis-4-[(cyclopropylmethoxy)carbonyl]-2,3,3a,4,9,9a-hexahydro-1H-cyclopenta[b]quinolin-9-yl}amino)-4-oxobutanoic acid] | 20.1 to 200 nM
O=C(O)CCC(=O)N(C1CC1)C1c2ccccc2N(C(=O)n2ccnc2)C2CCCC21 (racemic) [23B, 4-{cyclopropyl[cis, cis-4-(1H-imidazol-1-ylcarbonyl)-2,3,3a,4,9,9a-hexahydro-1H-cyclopenta[b]quinolin-9-yl]amino}-4-oxobutanoic acid] | 20.1 to 200 nM
O=C(O)CCC(=O)N(C1CC1)C1c2ccccc2N(C(=O)NCc2ccccc2)C2CCCC21 (racemic) [23C, 4-{[cis, cis-4-(benzylcarbamoyl)-2,3,3a,4,9,9a-hexahydro-1H-cyclopenta[b]quinolin-9-yl](cyclopropyl)amino}-4-oxobutanoic acid] | 20.1 to 200 nM
CN(C(=O)N1c2ccccc2C(N(C(=O)CCC(=O)O)C2CC2)C2CCCC21)c1ccccc1 (racemic) [23D, 4-(cyclopropyl{cis, cis-4-[methyl(phenyl)carbamoyl]-2,3,3a,4,9,9a-hexahydro-1H-cyclopenta[b]quinolin-9-yl}amino)-4-oxobutanoic acid] | 20.1 to 200 nM
O=C(O)CCC(=O)N(C1CC1)C1c2ccccc2N(S(=O)(=O)c2ccc(OC(F)(F)F)cc2)C2CCCC12 (racemic) [24D, 4-[cyclopropyl[cis,cis-2,3,3a,4,9,9a-hexahydro-4-[[4-(trifluoromethoxy)phenyl]sulfonyl]-1H-cyclopenta[b]quinolin-9-yl]amino]-4-oxobutanoic acid] | 20.1 to 200 nM
O=C(O)CCC(=O)N(C1CC1)C1c2ccccc2N(c2nnc(-c3ccccc3)o2)C2CCCC21 (racemic) [36A, racemic 4-{cyclopropyl[cis, cis-4-(5-phenyl-1,3,4-oxadiazol-2-yl)-2,3,3a,4,9,9a-hexahydro-1H-cyclopenta[b]quinolin-9-yl]amino}-4-oxobutanoic acid] | 20.1 to 200 nM
O=C(O)CCC(=O)N(C1CC1)C1c2ccccc2N(c2nnc(-c3ccc(F)cc3)o2)C2CCCC21 (racemic) [36B, racemic 4-(cyclopropyl{cis, cis-4-[5-(4-fluorophenyl)-1,3,4-oxadiazol-2-yl]-2,3,3a,4,9,9a-hexahydro-1H-cyclopenta[b]quinolin-9-yl}amino)-4-oxobutanoic acid] | 20.1 to 200 nM
O=C(O)CCC(=O)N(C1CC1)C1c2ccccc2N(c2nnc(-c3ccc(OC(F)(F)F)cc3)o2)C2CCCC21 (racemic) [36C, racemic 4-{cyclopropyl[cis, cis-4-{5-[4-trifluoro-(methoxy)phenyl]-1,3,4-oxadiazol-2-yl}-2,3,3a,4,9,9a-hexahydro-1H-cyclopenta[b]quinolin-9-yl]amino}-4-oxobutanoic acid] | 201 to 7500 nM
CC(CC(=O)N(C1CC1)C1c2ccccc2N(C(=O)OCc2ccccc2)C2CCCC21)C(=O)O (racemic) [compound 10, 4-[{cis,cis-4-[(Benzyloxy)carbonyl]-2,3,3a,4,9,9a-hexahydro-1H-cyclopenta[b]quinolin-9-yl}(cyclopropyl)amino]-2-methyl-4-oxobutanoic acid] | 201 to 7500 nM
COC(=O)CCC(=O)N(c1ccccc1)[C@@H]1c2ccccc2N(C(=O)OCc2ccccc2)[C@@H]2CCC[C@@H]21 (racemic) [compound 12, Benzyl cis,cis-9-[(4-methoxy-4-oxobutanoyl)(phenyl)amino]-1,2,3,3a,9,9a-hexahydro-4H-cyclopenta[b]quinoline-4-carboxylate] | 201 to 7500 nM
CCN(C(=O)CCC(=O)O)[C@@H]1c2ccccc2N(C(=O)OCc2ccccc2)[C@@H]2CCC[C@H]12 (racemic) [compound 13, 4-[{cis,cis-4-[(Benzyloxy)carbonyl]-2,3,3a,4,9,9a-hexahydro-1H-cyclopenta[b]quinolin-9-yl}(ethyl)amino]-4-oxobutanoic acid] | 5.1 to 20 nM
O=C(O)CCC(=O)N(C1CC1)[C@@H]1c2ccccc2N(C(=O)c2ccccc2)[C@@H]2CCC[C@@H]21 (racemic) [compound 14, 4-[[cis,cis-4-Benzoyl-2,3,3a,4,9,9a-hexahydro-1H-cyclopenta[b]quinolin-9-yl](cyclopropyl)amino]-4-oxobutanoic acid] | 5.1 to 20 nM
COC(=O)CCC(=O)N(C1CC1)C1c2ccc(F)cc2N(C(=O)OCc2ccccc2)C2CCCC21 (racemic) [compound 15, Benzyl cis,cis-9-[cyclopropyl(4-methoxy-4-oxobutanoyl)amino]-6-fluoro-1,2,3,3a,9,9a-hexahydro-4H-cyclopenta[b]quinoline-4-carboxylate] | 20.1 to 200 nM
O=C(O)CCC(=O)N(C1CC1)[C@@H]1c2ccc(F)cc2N(C(=O)OCc2ccccc2)[C@@H]2CCC[C@@H]21 (racemic) [compound 16, 4-[{cis,cis-4-[(Benzyloxy)carbonyl]-6-fluoro-2,3,3a,4,9,9a-hexahydro-1H-cyclopenta[b]quinolin-9-yl}(cyclopropyl)amino]-4-oxobutanoic acid] | 1 to 5 nM
CC(C)OC(=O)N1c2ccccc2C(N(C(=O)CCC(=O)O)C2CC2)C2CCCC21 (racemic) [compound 21, 4-(Cyclopropyl{cis,cis-4-[(1-methylethoxy)carbonyl]-2,3,3a,4,9,9a-hexahydro-1H-cyclopenta[b]quinolin-9-yl}amino)-4-oxobutanoic acid] | 20.1 to 200 nM
O=C(O)CCC(=O)N(C1CC1)[C@@H]1c2ccccc2N(C(=O)N2CCc3ccccc32)[C@@H]2CCC[C@@H]21 (racemic) [compound 23, 4-{Cyclopropyl[cis,cis-4-(2,3-dihydro-1H-indol-1-ylcarbonyl)-2,3,3a,4,9,9a-hexahydro-1H-cyclopenta[b]quinolin-9-yl]amino}-4-oxobutanoic acid] | 20.1 to 200 nM
O=C(O)CCC(=O)N(C1CC1)[C@@H]1c2ccccc2N(S(=O)(=O)c2ccccc2)[C@@H]2CCC[C@H]12 (racemic) [compound 24, 4-[Cyclopropyl[cis,cis-2,3,3a,4,9,9a-hexahydro-4-(phenylsulfonyl)-1H-cyclopenta[b]quinolin-9-yl]amino]-4-oxobutanoic acid] | 20.1 to 200 nM
O=C(O)CCC(=O)N(C1CC1)[C@@H]1c2ccccc2N(C(=O)OCc2ccccc2)[C@@H]2CC[C@@H]21 (racemic) [compound 25, 4-[{cis,cis-3-[(Benzyloxy)carbonyl]-1,2,2a,3,8,8a-hexahydrocyclobuta[b]quinolin-8-yl}(cyclopropyl)amino]-4-oxobutanoic acid] | 20.1 to 200 nM
COC(=O)CCC(=O)N(C1CC1)C1c2ccccc2N(C(=O)c2ccc(OC(F)(F)F)cc2)C2CCC21 (racemic) [compound 26, Methyl 4-{cyclopropyl[cis,cis-3-{[4-(trifluoromethoxy)phenyl]carbonyl}-1,2,2a,3,8,8a-hexahydrocyclobuta[b]quinolin-8-yl]amino}-4-oxobutanoate] | 20.1 to 200 nM
O=C(O)CCC(=O)N(C1CC1)[C@@H]1c2ccccc2N(C(=O)OCc2ccccc2)[C@@H]2CCCC[C@@H]21 (racemic) [compound 28, 4-[{cis,cis-10-[(Benzyloxy)carbonyl]-1,2,3,4,4a,9,9a,10-octahydroacridin-9-yl}(cyclopropyl)amino]-4-oxobutanoic acid] | 20.1 to 200 nM

From patent US8592383B2, “Cycloalkyl-fused tetrahydroquinolines as CRTH2 receptor modulators” (Merck Sharp & Dohme Corp., priority 2011, dated 2013)
